Experiments:
[1] = molecular target: T1, CYP2E1 (Homo sapiens, UniProt P05181); assay: in vitro; conditions: human liver microsomes, pH 7.4, probe chlorzoxazone (6-hydroxylation)
[2] = molecular target: T1, CYP2E1; assay: Human liver microsomal CYP2E1, chlorzoxazone 6-hydroxylation; conditions: human; for inhibition at 30 min, 0.167 % (w/v): microsomes, pH 7.4;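 on all read-outs here: chlorzoxazone added as substrate, 6-hydroxychlorzoxazone formation quantified by LC/MS/MS after 30 min at 37 °C with NADP+ regenerating system, compared against solvent control without test sample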
[3] = molecular target: T2, human liver microsomal cytochrome P450 2E1 (CYP2E1) (Homo sapiens, UniProt P05181)
[4] = molecular target: T2, human liver microsomal cytochrome P450 2E1 (CYP2E1); assay: Human liver microsomal CYP2E1, chlorzoxazone 6-hydroxylation;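 further: chlorzoxazone added as substrate, 6-hydroxychlorzoxazone formation quantified by LC/MS/MS after 30 min at 37 °C with NADP+ regenerating system, compared against solvent control without test sample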
[5] = molecular target: cytochrome P450 2E1 (CYP2E1) (Homo sapiens, UniProt P05181); assay: CYP2E1 High Throughput Inhibitor Screening Kit, cDNA synthesized microsomal CYP2E1 (MFC to HFC); conditions: Table 3; minimum tested concentration (mg/L) × volume of human liver and intestine (3L)
Source text: CYP2E1 High Throughput Inhibitor Screening Kit (BD Bioscience, USA) was used to screen the cytochrome P450 (CYP2E1) inhibitors from 22 Chinese medicine guiding drugs and 10 excipients and microsomal cytochrome P450 (CYP2E1) was synthesized from cDNA (BD Bioscience, USA). The principle of the screening kit is to measure the percentage of CYP2E inhibition, after adding the test sample to substrate MFC (7-Methoxy-4-trifluoromethyl coumarin) and cytochrome P450 (CYP2E1), by measuring the synthesis of standard CYP2E1 metabolite (HFC, 7-Hydroxy-4-trifluoromethyl coumarin) and use control HFC as baseline.
a. 149 μl NADPH-Cofactor Mix and 1 μl 20 mM DDTC were added to the #1 well in a 96-well plate and mixed thoroughly,
b. Add 100 μl Cofactor/acetonitrile mix to #2 to #12 wells, and well #1 to #8 are positive control. Well #9 and 10 are control and well #11 and #12 are blank,
c. […] Preparation of Experimental Groups: a. […] Transfer 50 μl from well #1 and #2 and added to well #3 and mixed thoroughly (triplicate for each sample), 3. Initiation and Termination of the Reaction: a. The 96-well plate was incubated at 37° C. for […], b. 100 μl of Enzyme/Substrate Mix was added to every well and mixed thoroughly except the blank wells, c. The 96-well plate was incubated at 37° C. for 40 min, d. 75 μl Stop Solution was added to every well and mixed thoroughly, e. Immediately add 100 μl Enzyme/Substrate Mix to blank wells and mixed thoroughly, f. Measure with a Fluoroskan Ascent FL (Thermo Electron Corporation, Finland) with excitation at 405 nm and emission at 538 nm, 4. The fluorescence was transverse into CYP 2E1 metabolite standard (HFC) concentration (pmol) and the percentage (%) of CYP 2E1 inhibition was calculated using control as baseline by following equation: […]

[6] = system: 129/sv mice; assay: Mouse study of INH/RIF with oral Kaempferol, Mannitol, Saccharin, Sucralose, Dicalcium phosphate or Crospovidone; format: in vivo; conditions: 3 weeks, in words
Source text: Animals were randomized into one of thirteen groups, each involving three treatments. […].
All mice were subjected to GSP test.

[7] = system: 129/sv mice; assay: Mouse study of INH/RIF(/PZA) with i.p. Kaempferol or Quercetin
Source text: Animals were randomized into one of seven groups, each involving five treatments.
All mice were subjected to GSP tests.

[8] = system: amidase; assay: Mouse liver microsomal amidase, isoniazid to isonicotinic acid; format: biochemical
[9] = system: 129/sv mice; assay: Mouse study of INH/RIF/PZA with oral Mannitol (GSP); format: in vivo; conditions: in words
Experimental: Mice were anesthetized with ether at the dose of 50 mg/kg and galactose was retro-orbitally injected and blood samples were collected 60 min after injection through tail vein.
Animals were randomized into one of three groups, each involving four treatments. […] The second treatment involved injections of 50 mg/kg INH or INH vehicle (VEH1, normal saline). […] The third treatment involved injections of RIF (100 mg/kg) or RIF vehicle (VEH2, saline). […] The fourth treatment involved injections of PZA (250 mg/kg) or PZA vehicle (VEH3, saline).

[10] = system: Male SD (Sprague-Dawley) rats; assay: Rat study of PZA combined with BNPP (AST, ALT, histology, GSP); format: in vivo
Experimental: The body weight of the rats was monitored throughout the experiment. Rats were anesthetized with sodium pentobarbital intraperitoneally (i.p.) at the dose of 50 mg/kg and galactose was injected intravenously through a polyethylene catheter positioned in internal jugular vein. The catheter was positioned by cut-down technique and its end was embedded under the skin behind the neck. After the surgery, the rats were fasted overnight during the recovery period (about 16 hours) with unrestricted water access.
Animals were randomized into one of five groups, each involving three treatments. The first treatment involved either a BNPP injection of 50 mg/kg or a BNPP vehicle (VEH1) injection (saline). […] The second treatment involved injections of either 500 mg/kg PZA or PZA vehicle (VEH2, saline). PZA was dissolved in saline and i.p. injected at a volume of […]. The first treatment (BNPP or VEH1) was administered 15 minutes before the […].
2. PZA group (PZA, n=10): continuously injections of PZA, VEH1 and VEH2 intraperitoneally once every day for 49 days;
3. BNPP-PZA group (BNPP-PZA, n=10): continuously injections of BNPP, PZA and VEH2 intraperitoneally once every day for 49 days;
After the rats were sacrificed, the livers were subjected to histology analysis.
All rats were subjected to GSP tests.

[11] = human liver microsomes, pH 7.4, probe Chlorzoxazone
[12] = daily i.p. 3 weeks, INH/RIF 50/100 mg/kg, Kaempferol 3.78 mg/kg
[13] = i.p. daily 49 days, PZA 500 mg/kg, BNPP 50 mg/kg

T1 sequence (P05181 whole entry): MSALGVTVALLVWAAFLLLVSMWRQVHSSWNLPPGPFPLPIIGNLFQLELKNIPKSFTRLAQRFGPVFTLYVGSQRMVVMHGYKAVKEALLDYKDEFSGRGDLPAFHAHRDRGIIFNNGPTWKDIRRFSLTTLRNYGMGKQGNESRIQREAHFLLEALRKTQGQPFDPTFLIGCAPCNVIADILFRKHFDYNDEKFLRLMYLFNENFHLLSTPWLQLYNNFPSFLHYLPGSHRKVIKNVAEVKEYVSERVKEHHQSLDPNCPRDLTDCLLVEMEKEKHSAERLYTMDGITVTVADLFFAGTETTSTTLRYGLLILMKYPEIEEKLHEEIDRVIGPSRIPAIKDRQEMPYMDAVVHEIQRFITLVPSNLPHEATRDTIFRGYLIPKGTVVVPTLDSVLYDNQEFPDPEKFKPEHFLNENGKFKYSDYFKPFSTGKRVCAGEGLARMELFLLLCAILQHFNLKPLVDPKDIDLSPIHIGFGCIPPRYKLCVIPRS
T2 sequence (P05181 whole entry): as above
Sequence of cytochrome P450 2E1 (CYP2E1) (P05181 whole entry): as above

OCc1ccccc1 [Benzyl alcohol]
inhibition at 30 min, […] [1]: 7.7 ± 2.6% | inhibition at 30 min, 0.08 % (w/v) [2, 11]: 6.7 ± 1% | inhibition at 30 min, 0.167 % (w/v) [2]: -10.3 ± 6.3%

CCCCCCCCCCCCCCCCCC(=O)OCC(O)CO (centres unmarked) [Glycerrin monostearate]
inhibition [3]: 5.8 ± 1.7% | Inhibition of CYP 2E1 ([4]; 0.08% (w/v)): 7.4 ± 2.9% | Inhibition of CYP 2E1 ([4]; 0.167% (w/v)): 6.9 ± 3.8%

O=c1c(O)c(-c2ccc(O)cc2)oc2cc(O)cc(O)c12 [Kaempferol]
Minimum Effective Dose [5]: 16 mg | GSP values over treatment time [6]: remained constant | Minimum Effective Dose ([4]; Table 6, minimum tested concentration (mg/L) × volume of human liver and intestine (3 L)): 16 mg | liver function tests ([7]; Kaempferol 1.89 mg/kg with INH/RIF, in words): no obvious reduction | GOT [7, 12]: 89±19 U/L | GPT [7, 12]: 48±21 U/L

OC[C@@H](O)[C@@H](O)[C@H](O)[C@H](O)CO [Mannitol]
Amidase inhibition ([8]; 0.0005%): 58.3 ± 4.3% | Amidase inhibition ([8]; 0.005%): 52.8 ± 7.6% | Amidase inhibition ([8]; 0.05%): 1.9 ± 6.0% | GSP values over treatment time [6]: remained constant | GSP values over treatment time [9]: reamined constant | inhibition at 30 min, 16.5 µM [2, 11]: 44.8 ± 1.8% | inhibition at 30 min, 33 µM [2, 11]: 51.2 ± 2.1% | inhibition at 30 min, 66 µM [2, 11]: 54.5 ± 4.2% | Minimum Effective Dose ([4]; Table 7): 10 mg

NC(=O)c1cnccn1 [PZA, pyrazinamide]
plasma ALT activities [10, 13]: 91±11 IU/L | plasma AST activities [10, 13]: 179±10 IU/L | liver histopathology ([10]; seven weeks, in words): showed hepatocellular damage

OC[C@@H](O)[C@@H](O)[C@H](O)[C@@H](O)CO [Sorbitol]
inhibition at 30 min, […] [1]: 4.4 ± 1.7% | inhibition at 30 min, 0.08 % (w/v) [2, 11]: 5.6 ± 0.5% | inhibition at 30 min, 0.167 % (w/v) [2]: 16.1 ± 0.7%

Sodium starch glycolate
inhibition [3]: 34.7 ± 1.3%

Tween 80
inhibition [3]: 23.1 ± 3%

— patent US8969312B2, “Low side effect pharmaceutical composition containing antituberculosis drugs” (priority 2011, dated 2015)
